Assay results reported in ChEMBL document CHEMBL1134291, “The synthesis of a prodrug of doxorubicin designed to provide reduced systemic toxicity and greater target efficacy” (J Med Chem, 2001).

Assays:
LNCaP [1] = assay: Percentage PSA reduction relative to vehicle control following intraperitoneal injection of conjugate dose for 5 consecutive days to nude mice bearing LNCaP tumor xenografts; assay type: functional, Homo sapiens
Mus musculus [2] = assay: Maximum nonlethal drug dose which could be administered (ip) to non tumor bearing nude mice for 5 consecutive days; assay type: functional
Mus musculus [3] = assay: Percentage weight reduction relative to vehicle control following intraperitoneal (ip) injection of conjugate dose for 5 consecutive days to nude mice bearing LNCaP tumor xenografts( 21.7 umol/kg dose)
LNCaP [4] = assay: Concentration required to kill 50% of tumor cells in PSA producing LNCaP human prostate cancer cell line; assay type: functional, cell-based
PSA = assay: Time required for PSA to hydrolyze 50% (t1/2); assay type: ADME; conditions: PSA (enzyme)
DuPro = assay: Concentration required to kill 50% of tumor cells in PSA nonproducing DuPRO human prostate cancer cell line; assay type: functional, cell-based
Mus musculus [5] = assay: Percentage weight reduction relative to vehicle control following intraperitoneal (ip) injection of conjugate dose for 5 consecutive days to nude mice bearing LNCaP tumor xenografts(18.9 umol/kg dose); assay type: functional

Structure (SMILES)	Reduction (LNCaP [1]) [%]	MTD (Mus musculus [2]) [µM/kg]	Reduction (Mus musculus [3]) [%]	EC50 (LNCaP [4]) [µM]	half-life (PSA) [min]	EC50 (DuPro) [µM]	Reduction (Mus musculus [5]) [%]
COc1cccc2c1C(=O)c1c(O)c3c(c(O)c1C2=O)C[C@@](O)(C(=O)CO)C[C@@H]3OC1CC(NC(=O)[C@H](CC(C)C)NC(=O)[C@H](CO)NC(=O)[C@@H](CCC(N)=O)NC(=O)[C@@H](NC(=O)[C@H](CO)NC(=O)[C@H](C)NC(=O)C2CC(O)CN2C(=O)CCC(=O)O)C2CCCCC2)C(O)C(C)O1 (some centres not stated)	94	28.9	72	5.7	55	100	
COc1cccc2c1C(=O)c1c(O)c3c(c(O)c1C2=O)C[C@@](O)(C(=O)CO)C[C@@H]3OC1CC(NC(=O)[C@H](CC(C)C)NC(=O)[C@H](CO)NC(=O)[C@@H](CCC(N)=O)NC(=O)[C@H](Cc2ccc(O)cc2)NC(=O)[C@H](CO)NC(=O)[C@H](C)NC(=O)[C@H](CCCN)NC(C)=O)C(O)C(C)O1 (some centres not stated)	22	>45.3		85	> 1200	> 100	26
